# pIC50: −log10 of the molar value.
# Test system: 186277-243-T-J2-PDC spheroids with HUVEC/MSC, viability
# Assay: Anticancer human tumor 186277-243-T-J2-PDC patient-derived colon adenocarcinoma cell line growth inhibition [CLK]
# Details: curve of first compound; second compound 10 µM
# In short: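 Patient-derived tumor cells grown as complex spheroids with HUVEC endothelial cells and mesenchymal stem cells, treated with drug combinations. Concentrations descend in half-log steps from near clinical Cmax, or from 10 microM if Cmax unknown.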
# 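Note: compound exposure lasted seven days before readout.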
# 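Throughout, for viability, T/C: 100% = DMSO vehicle control wells.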
row,SMILES,pIC50
1,CC1COCCN1c1cc(C2(S(C)(=N)=O)CC2)nc(-c2ccnc3[nH]ccc23)n1 (centres undefined) + CNC(=O)c1ccc(Nc2nc(OC3CCCC3)c3c(-c4ccc5nc(C)oc5c4)c[nH]c3n2)c(OC)c1,> 7.50
2,CCCS(=O)(=O)Nc1ccc(F)c(C(=O)c2c[nH]c3ncc(-c4ccc(Cl)cc4)cc23)c1F + CNC(=O)c1ccc(Nc2nc(OC3CCCC3)c3c(-c4ccc5nc(C)oc5c4)c[nH]c3n2)c(OC)c1,> 7.50
3,O=C(c1cc(Cc2n[nH]c(=O)c3ccccc23)ccc1F)N1CCN(C(=O)C2CC2)CC1 + CN1CCN(c2cc(C(=O)Nc3cc4cc(-c5cnn(C)c5)ccc4cn3)ccn2)CC1,> 7.50

# Same assay, conditions: second compound 0.0316 µM; first compound 0.00316 µM; stronger effect = lower value
row,SMILES,"viability, T/C [%]"
1,CCc1c2c(nc3ccc(O)cc13)-c1cc3c(c(=O)n1C2)COC(=O)[C@]3(O)CC + CN1CCN(c2cc(C(=O)Nc3cc4cc(-c5cnn(C)c5)ccc4cn3)ccn2)CC1,82.2

# Same assay, conditions: second compound 0.0316 µM; first compound 0.01 µM; stronger effect = lower value
row,SMILES,"viability, T/C [%]"
1,CCc1c2c(nc3ccc(O)cc13)-c1cc3c(c(=O)n1C2)COC(=O)[C@]3(O)CC + CN1CCN(c2cc(C(=O)Nc3cc4cc(-c5cnn(C)c5)ccc4cn3)ccn2)CC1,73.1

# Same assay, conditions: second compound 0.0316 µM; first compound 0.0316 µM; stronger effect = lower value
row,SMILES,"viability, T/C [%]"
1,CCc1c2c(nc3ccc(O)cc13)-c1cc3c(c(=O)n1C2)COC(=O)[C@]3(O)CC + CN1CCN(c2cc(C(=O)Nc3cc4cc(-c5cnn(C)c5)ccc4cn3)ccn2)CC1,39.9
2,CC1COCCN1c1cc(C2(S(C)(=N)=O)CC2)nc(-c2ccnc3[nH]ccc23)n1 (centres undefined) + CNC(=O)c1ccc(Nc2nc(OC3CCCC3)c3c(-c4ccc5nc(C)oc5c4)c[nH]c3n2)c(OC)c1,109
3,CCCS(=O)(=O)Nc1ccc(F)c(C(=O)c2c[nH]c3ncc(-c4ccc(Cl)cc4)cc23)c1F + CNC(=O)c1ccc(Nc2nc(OC3CCCC3)c3c(-c4ccc5nc(C)oc5c4)c[nH]c3n2)c(OC)c1,105
4,O=C(c1cc(Cc2n[nH]c(=O)c3ccccc23)ccc1F)N1CCN(C(=O)C2CC2)CC1 + CN1CCN(c2cc(C(=O)Nc3cc4cc(-c5cnn(C)c5)ccc4cn3)ccn2)CC1,95.8

# Same assay, conditions: second compound 0.0316 µM; first compound 0.1 µM; stronger effect = lower value
row,SMILES,"viability, T/C [%]"
1,CCc1c2c(nc3ccc(O)cc13)-c1cc3c(c(=O)n1C2)COC(=O)[C@]3(O)CC + CN1CCN(c2cc(C(=O)Nc3cc4cc(-c5cnn(C)c5)ccc4cn3)ccn2)CC1,22.3
2,CC1COCCN1c1cc(C2(S(C)(=N)=O)CC2)nc(-c2ccnc3[nH]ccc23)n1 (centres undefined) + CNC(=O)c1ccc(Nc2nc(OC3CCCC3)c3c(-c4ccc5nc(C)oc5c4)c[nH]c3n2)c(OC)c1,109
3,CCCS(=O)(=O)Nc1ccc(F)c(C(=O)c2c[nH]c3ncc(-c4ccc(Cl)cc4)cc23)c1F + CNC(=O)c1ccc(Nc2nc(OC3CCCC3)c3c(-c4ccc5nc(C)oc5c4)c[nH]c3n2)c(OC)c1,101
4,O=C(c1cc(Cc2n[nH]c(=O)c3ccccc23)ccc1F)N1CCN(C(=O)C2CC2)CC1 + CN1CCN(c2cc(C(=O)Nc3cc4cc(-c5cnn(C)c5)ccc4cn3)ccn2)CC1,97.4

# Same assay, conditions: second compound 0.0316 µM; first compound 0.316 µM; stronger effect = lower value
row,SMILES,"viability, T/C [%]"
1,CCc1c2c(nc3ccc(O)cc13)-c1cc3c(c(=O)n1C2)COC(=O)[C@]3(O)CC + CN1CCN(c2cc(C(=O)Nc3cc4cc(-c5cnn(C)c5)ccc4cn3)ccn2)CC1,19.1
2,CC1COCCN1c1cc(C2(S(C)(=N)=O)CC2)nc(-c2ccnc3[nH]ccc23)n1 (centres undefined) + CNC(=O)c1ccc(Nc2nc(OC3CCCC3)c3c(-c4ccc5nc(C)oc5c4)c[nH]c3n2)c(OC)c1,105
3,CCCS(=O)(=O)Nc1ccc(F)c(C(=O)c2c[nH]c3ncc(-c4ccc(Cl)cc4)cc23)c1F + CNC(=O)c1ccc(Nc2nc(OC3CCCC3)c3c(-c4ccc5nc(C)oc5c4)c[nH]c3n2)c(OC)c1,98.5
4,O=C(c1cc(Cc2n[nH]c(=O)c3ccccc23)ccc1F)N1CCN(C(=O)C2CC2)CC1 + CN1CCN(c2cc(C(=O)Nc3cc4cc(-c5cnn(C)c5)ccc4cn3)ccn2)CC1,97.2

# Same assay, conditions: second compound 0.0316 µM; first compound 1 µM; stronger effect = lower value
row,SMILES,"viability, T/C [%]"
1,CCc1c2c(nc3ccc(O)cc13)-c1cc3c(c(=O)n1C2)COC(=O)[C@]3(O)CC + CN1CCN(c2cc(C(=O)Nc3cc4cc(-c5cnn(C)c5)ccc4cn3)ccn2)CC1,14.1
2,CC1COCCN1c1cc(C2(S(C)(=N)=O)CC2)nc(-c2ccnc3[nH]ccc23)n1 (centres undefined) + CNC(=O)c1ccc(Nc2nc(OC3CCCC3)c3c(-c4ccc5nc(C)oc5c4)c[nH]c3n2)c(OC)c1,114
3,CCCS(=O)(=O)Nc1ccc(F)c(C(=O)c2c[nH]c3ncc(-c4ccc(Cl)cc4)cc23)c1F + CNC(=O)c1ccc(Nc2nc(OC3CCCC3)c3c(-c4ccc5nc(C)oc5c4)c[nH]c3n2)c(OC)c1,110
4,O=C(c1cc(Cc2n[nH]c(=O)c3ccccc23)ccc1F)N1CCN(C(=O)C2CC2)CC1 + CN1CCN(c2cc(C(=O)Nc3cc4cc(-c5cnn(C)c5)ccc4cn3)ccn2)CC1,103

# Same assay, conditions: second compound 0.0316 µM; first compound 3.16 µM; stronger effect = lower value
row,SMILES,"viability, T/C [%]"
1,CC1COCCN1c1cc(C2(S(C)(=N)=O)CC2)nc(-c2ccnc3[nH]ccc23)n1 (centres undefined) + CNC(=O)c1ccc(Nc2nc(OC3CCCC3)c3c(-c4ccc5nc(C)oc5c4)c[nH]c3n2)c(OC)c1,35
2,CCCS(=O)(=O)Nc1ccc(F)c(C(=O)c2c[nH]c3ncc(-c4ccc(Cl)cc4)cc23)c1F + CNC(=O)c1ccc(Nc2nc(OC3CCCC3)c3c(-c4ccc5nc(C)oc5c4)c[nH]c3n2)c(OC)c1,103
3,O=C(c1cc(Cc2n[nH]c(=O)c3ccccc23)ccc1F)N1CCN(C(=O)C2CC2)CC1 + CN1CCN(c2cc(C(=O)Nc3cc4cc(-c5cnn(C)c5)ccc4cn3)ccn2)CC1,102

# Same assay, conditions: second compound 0.0316 µM; first compound 10 µM; stronger effect = lower value
row,SMILES,"viability, T/C [%]"
1,CC1COCCN1c1cc(C2(S(C)(=N)=O)CC2)nc(-c2ccnc3[nH]ccc23)n1 (centres undefined) + CNC(=O)c1ccc(Nc2nc(OC3CCCC3)c3c(-c4ccc5nc(C)oc5c4)c[nH]c3n2)c(OC)c1,13
2,CCCS(=O)(=O)Nc1ccc(F)c(C(=O)c2c[nH]c3ncc(-c4ccc(Cl)cc4)cc23)c1F + CNC(=O)c1ccc(Nc2nc(OC3CCCC3)c3c(-c4ccc5nc(C)oc5c4)c[nH]c3n2)c(OC)c1,78.8
3,O=C(c1cc(Cc2n[nH]c(=O)c3ccccc23)ccc1F)N1CCN(C(=O)C2CC2)CC1 + CN1CCN(c2cc(C(=O)Nc3cc4cc(-c5cnn(C)c5)ccc4cn3)ccn2)CC1,93.6

# Same assay, conditions: second compound 0.1 µM; first compound 0.00316 µM; stronger effect = lower value
row,SMILES,"viability, T/C [%]"
1,CCc1c2c(nc3ccc(O)cc13)-c1cc3c(c(=O)n1C2)COC(=O)[C@]3(O)CC + CN1CCN(c2cc(C(=O)Nc3cc4cc(-c5cnn(C)c5)ccc4cn3)ccn2)CC1,66.9

# Same assay, conditions: second compound 0.1 µM; first compound 0.01 µM; stronger effect = lower value
row,SMILES,"viability, T/C [%]"
1,CCc1c2c(nc3ccc(O)cc13)-c1cc3c(c(=O)n1C2)COC(=O)[C@]3(O)CC + CN1CCN(c2cc(C(=O)Nc3cc4cc(-c5cnn(C)c5)ccc4cn3)ccn2)CC1,58.6

# Same assay, conditions: second compound 0.1 µM; first compound 0.0316 µM; stronger effect = lower value
row,SMILES,"viability, T/C [%]"
1,CCc1c2c(nc3ccc(O)cc13)-c1cc3c(c(=O)n1C2)COC(=O)[C@]3(O)CC + CN1CCN(c2cc(C(=O)Nc3cc4cc(-c5cnn(C)c5)ccc4cn3)ccn2)CC1,31.4
2,CC1COCCN1c1cc(C2(S(C)(=N)=O)CC2)nc(-c2ccnc3[nH]ccc23)n1 (centres undefined) + CNC(=O)c1ccc(Nc2nc(OC3CCCC3)c3c(-c4ccc5nc(C)oc5c4)c[nH]c3n2)c(OC)c1,80.7
3,CCCS(=O)(=O)Nc1ccc(F)c(C(=O)c2c[nH]c3ncc(-c4ccc(Cl)cc4)cc23)c1F + CNC(=O)c1ccc(Nc2nc(OC3CCCC3)c3c(-c4ccc5nc(C)oc5c4)c[nH]c3n2)c(OC)c1,77
4,O=C(c1cc(Cc2n[nH]c(=O)c3ccccc23)ccc1F)N1CCN(C(=O)C2CC2)CC1 + CN1CCN(c2cc(C(=O)Nc3cc4cc(-c5cnn(C)c5)ccc4cn3)ccn2)CC1,82.5

# Same assay, conditions: second compound 0.1 µM; first compound 0.1 µM; stronger effect = lower value
row,SMILES,"viability, T/C [%]"
1,CCc1c2c(nc3ccc(O)cc13)-c1cc3c(c(=O)n1C2)COC(=O)[C@]3(O)CC + CN1CCN(c2cc(C(=O)Nc3cc4cc(-c5cnn(C)c5)ccc4cn3)ccn2)CC1,17.5
2,CC1COCCN1c1cc(C2(S(C)(=N)=O)CC2)nc(-c2ccnc3[nH]ccc23)n1 (centres undefined) + CNC(=O)c1ccc(Nc2nc(OC3CCCC3)c3c(-c4ccc5nc(C)oc5c4)c[nH]c3n2)c(OC)c1,77.5
3,CCCS(=O)(=O)Nc1ccc(F)c(C(=O)c2c[nH]c3ncc(-c4ccc(Cl)cc4)cc23)c1F + CNC(=O)c1ccc(Nc2nc(OC3CCCC3)c3c(-c4ccc5nc(C)oc5c4)c[nH]c3n2)c(OC)c1,77.5
4,O=C(c1cc(Cc2n[nH]c(=O)c3ccccc23)ccc1F)N1CCN(C(=O)C2CC2)CC1 + CN1CCN(c2cc(C(=O)Nc3cc4cc(-c5cnn(C)c5)ccc4cn3)ccn2)CC1,82.8

# Same assay, conditions: second compound 0.1 µM; first compound 0.316 µM; stronger effect = lower value
row,SMILES,"viability, T/C [%]"
1,CCc1c2c(nc3ccc(O)cc13)-c1cc3c(c(=O)n1C2)COC(=O)[C@]3(O)CC + CN1CCN(c2cc(C(=O)Nc3cc4cc(-c5cnn(C)c5)ccc4cn3)ccn2)CC1,14.3
2,CC1COCCN1c1cc(C2(S(C)(=N)=O)CC2)nc(-c2ccnc3[nH]ccc23)n1 (centres undefined) + CNC(=O)c1ccc(Nc2nc(OC3CCCC3)c3c(-c4ccc5nc(C)oc5c4)c[nH]c3n2)c(OC)c1,78.7
3,CCCS(=O)(=O)Nc1ccc(F)c(C(=O)c2c[nH]c3ncc(-c4ccc(Cl)cc4)cc23)c1F + CNC(=O)c1ccc(Nc2nc(OC3CCCC3)c3c(-c4ccc5nc(C)oc5c4)c[nH]c3n2)c(OC)c1,73.7
4,O=C(c1cc(Cc2n[nH]c(=O)c3ccccc23)ccc1F)N1CCN(C(=O)C2CC2)CC1 + CN1CCN(c2cc(C(=O)Nc3cc4cc(-c5cnn(C)c5)ccc4cn3)ccn2)CC1,82.7

# Same assay, conditions: second compound 0.1 µM; first compound 1 µM; stronger effect = lower value
row,SMILES,"viability, T/C [%]"
1,CCc1c2c(nc3ccc(O)cc13)-c1cc3c(c(=O)n1C2)COC(=O)[C@]3(O)CC + CN1CCN(c2cc(C(=O)Nc3cc4cc(-c5cnn(C)c5)ccc4cn3)ccn2)CC1,8.76
2,CC1COCCN1c1cc(C2(S(C)(=N)=O)CC2)nc(-c2ccnc3[nH]ccc23)n1 (centres undefined) + CNC(=O)c1ccc(Nc2nc(OC3CCCC3)c3c(-c4ccc5nc(C)oc5c4)c[nH]c3n2)c(OC)c1,60
3,CCCS(=O)(=O)Nc1ccc(F)c(C(=O)c2c[nH]c3ncc(-c4ccc(Cl)cc4)cc23)c1F + CNC(=O)c1ccc(Nc2nc(OC3CCCC3)c3c(-c4ccc5nc(C)oc5c4)c[nH]c3n2)c(OC)c1,92.5
4,O=C(c1cc(Cc2n[nH]c(=O)c3ccccc23)ccc1F)N1CCN(C(=O)C2CC2)CC1 + CN1CCN(c2cc(C(=O)Nc3cc4cc(-c5cnn(C)c5)ccc4cn3)ccn2)CC1,73.9

# Same assay, conditions: second compound 0.1 µM; first compound 3.16 µM; stronger effect = lower value
row,SMILES,"viability, T/C [%]"
1,CC1COCCN1c1cc(C2(S(C)(=N)=O)CC2)nc(-c2ccnc3[nH]ccc23)n1 (centres undefined) + CNC(=O)c1ccc(Nc2nc(OC3CCCC3)c3c(-c4ccc5nc(C)oc5c4)c[nH]c3n2)c(OC)c1,26.6
2,CCCS(=O)(=O)Nc1ccc(F)c(C(=O)c2c[nH]c3ncc(-c4ccc(Cl)cc4)cc23)c1F + CNC(=O)c1ccc(Nc2nc(OC3CCCC3)c3c(-c4ccc5nc(C)oc5c4)c[nH]c3n2)c(OC)c1,79.2
3,O=C(c1cc(Cc2n[nH]c(=O)c3ccccc23)ccc1F)N1CCN(C(=O)C2CC2)CC1 + CN1CCN(c2cc(C(=O)Nc3cc4cc(-c5cnn(C)c5)ccc4cn3)ccn2)CC1,73.2

# Same assay, conditions: second compound 0.1 µM; first compound 10 µM; stronger effect = lower value
row,SMILES,"viability, T/C [%]"
1,CC1COCCN1c1cc(C2(S(C)(=N)=O)CC2)nc(-c2ccnc3[nH]ccc23)n1 (centres undefined) + CNC(=O)c1ccc(Nc2nc(OC3CCCC3)c3c(-c4ccc5nc(C)oc5c4)c[nH]c3n2)c(OC)c1,13.7

# Source: PubChem BioAssay AID2060625 (Molecular Pharmacology Branch, DTP, NCI, 2025)
